Data on 14 compounds can be found in PubChem BioAssay (NCI).

Test systems include NCI-H460 lung; SF-268 CNS; UACC-62 melanoma; MCF7 breast; NCI-H23 lung; SK-MEL-5 melanoma; MOLT-4 leukemia; SR leukemia; LOX IMVI melanoma.
Assay in all cases: inhibition of tumour cell growth, NCI panel, 48 h

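Interpolation was linear, between the two tested concentrations surrounding the appropriate level; five concentrations were tested over 48 hours in 96-well plates. TGI denotes the concentration required for complete inhibition of growth.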

`O=c1oc2ccccc2cc1-c1cn2c(n1)sc1ccccc12`: the TGI in the test with NCI-H460 lung is more than 100 µM; with SF-268 CNS, more than 100 µM; in the test with UACC-62 melanoma it was more than 100 µM; in the test with MCF7 breast, 77.4 µM; with NCI-H23 lung it was more than 100 µM; with SK-MEL-5 melanoma, more than 100 µM. For the same compound, the TGI with MOLT-4 leukemia, with SR leukemia and in the test with LOX IMVI melanoma was more than 100 µM in each case.

Take `CCOC(=O)NC(OC)(C(F)(F)F)C(F)(F)F`: the TGI with NCI-H460 lung, in the test with SF-268 CNS, in the test with UACC-62 melanoma, with MCF7 breast, with NCI-H23 lung and with SK-MEL-5 melanoma was more than 100 µM each time. The TGI with MOLT-4 leukemia, with SR leukemia and in the test on LOX IMVI melanoma was more than 100 µM each time.

As to `Cc1cc(S(=O)(=O)Nc2nnc3cnc4ccccc4n23)c(S)cc1Cl`, the TGI was more than 100 µM in the test with NCI-H460 lung; more than 100 µM in the test on SF-268 CNS; more than 100 µM with UACC-62 melanoma; more than 100 µM in the test with MCF7 breast; more than 100 µM with NCI-H23 lung; more than 85.9 µM in the test with SK-MEL-5 melanoma. Moreover, the TGI in the test with MOLT-4 leukemia, in the test with SR leukemia and in the test on LOX IMVI melanoma was more than 100 µM in each case.

Consider `CC(C)(C)c1cc(OCc2nn3c(Cc4ccccc4)nnc3s2)c(Cl)cc1OCc1nn2c(Cc3ccccc3)nnc2s1`, for which the TGI in the test on NCI-H460 lung was more than 100 µM; with SF-268 CNS, more than 100 µM; in the test with UACC-62 melanoma it was more than 100 µM; in the test with MCF7 breast, more than 100 µM; in the test on NCI-H23 lung it was more than 100 µM; with SK-MEL-5 melanoma, 26.6 µM. Besides, the TGI in the test with MOLT-4 leukemia, in the test with SR leukemia and with LOX IMVI melanoma was more than 100 µM each time.

As for `C[C@@H]1C(=O)C[C@H]2C(C)(C)CCC[C@]2(C)[C@@]1(O)CCc1ccoc1`, the TGI with NCI-H460 lung, with SF-268 CNS, with UACC-62 melanoma, with MCF7 breast, in the test on NCI-H23 lung and in the test on SK-MEL-5 melanoma was more than 100 µM throughout. Further, the TGI in the test with MOLT-4 leukemia, with SR leukemia and in the test on LOX IMVI melanoma was more than 100 µM throughout.

`C=C1CC(Cn2ccc(=O)[nH]c2=O)(c2ccc(Cl)cc2)OC1=O` (stereo unspecified): the TGI amounted to 26.1 µM with NCI-H460 lung; 43.5 µM in the test on SF-268 CNS; 13.4 µM in the test on UACC-62 melanoma; 7.56 µM in the test on MCF7 breast; 12.8 µM with NCI-H23 lung; 10.8 µM in the test with SK-MEL-5 melanoma. The figures for the TGI in the test with MOLT-4 leukemia, in the test with SR leukemia and with LOX IMVI melanoma were 4.47 µM, 11.7 µM and 5.94 µM, respectively.

Take `CCOC(=O)Nc1ccc2c(c1)c(CCCCCCc1nc3ccccc3c3ccc(NC(=O)OCC)cc13)nc1ccccc12`: the TGI in the test on NCI-H460 lung was more than 100 µM; with SF-268 CNS, 74.9 µM; with UACC-62 melanoma, more than 100 µM; in the test with MCF7 breast, more than 100 µM; with NCI-H23 lung it was more than 100 µM; in the test on SK-MEL-5 melanoma it was more than 100 µM. Besides, the TGI in the test on MOLT-4 leukemia is more than 100 µM; in the test on SR leukemia, more than 100 µM; in the test on LOX IMVI melanoma it was 42.5 µM.

As for `CC(=O)Oc1c(-c2ccccc2)sc2ccccc12`, the TGI in the test on NCI-H460 lung came out at 27.7 µM; in the test with SF-268 CNS, 71.2 µM; with UACC-62 melanoma it was 63.2 µM; in the test with MCF7 breast, 56.4 µM; in the test on NCI-H23 lung, 38.7 µM; in the test with SK-MEL-5 melanoma, 44.5 µM. In addition, the TGI in the test on MOLT-4 leukemia turned out to be 40.7 µM; in the test on SR leukemia, 29.4 µM; in the test with LOX IMVI melanoma, 26.4 µM.

Consider `C=CCN(CCNS(=O)(=O)c1ccc(C)cc1)S(=O)(=O)c1ccc(C)cc1`, for which the TGI in the test on NCI-H460 lung is more than 71.7 µM; in the test on SF-268 CNS, more than 100 µM; in the test on UACC-62 melanoma, more than 100 µM; with MCF7 breast, more than 84.2 µM; with NCI-H23 lung, more than 95.5 µM; in the test with SK-MEL-5 melanoma it was 12.1 µM. Besides, the values for the TGI with MOLT-4 leukemia, with SR leukemia and with LOX IMVI melanoma were more than 84.5 µM, more than 100 µM and more than 100 µM, respectively.

With `O=C(NC(=O)c1cc(-c2ccccc2)n[nH]1)c1ccccc1`, the TGI with NCI-H460 lung, with SF-268 CNS, in the test with UACC-62 melanoma, with MCF7 breast, in the test on NCI-H23 lung and with SK-MEL-5 melanoma was more than 100 µM throughout. The TGI in the test with MOLT-4 leukemia is more than 100 µM; in the test on SR leukemia, 79.2 µM; with LOX IMVI melanoma it was more than 100 µM.

As to `CC(=O)Oc1c2c(c3n(c1=O)CCCC3)C(=O)N(c1ccccc1)C2=O`, the TGI in the test on NCI-H460 lung, in the test on SF-268 CNS, in the test with UACC-62 melanoma, in the test on MCF7 breast, in the test on NCI-H23 lung and in the test with SK-MEL-5 melanoma was more than 100 µM throughout. In addition, the TGI with MOLT-4 leukemia, in the test with SR leukemia and in the test with LOX IMVI melanoma was more than 100 µM in each case.

With `O=C1CC[C@@]2(O)[C@H]3Cc4ccc(-c5ccccc5)c5c4[C@@]2(CCN3CC2CC2)[C@H]1O5`, the TGI came out at 35.5 µM in the test on NCI-H460 lung; 29.7 µM in the test on SF-268 CNS; 25.2 µM with UACC-62 melanoma; 33.5 µM with MCF7 breast; 78.9 µM in the test on NCI-H23 lung; 28.6 µM in the test on SK-MEL-5 melanoma. In addition, the TGI was 43.5 µM in the test on MOLT-4 leukemia, more than 100 µM with SR leukemia and 32.8 µM in the test with LOX IMVI melanoma.

For the compound `COc1cc2c3c(n(C)c(=O)c2cc1OC)-c1cc2c(cc1/C3=C\CCCI)OCO2`, the TGI in the test with NCI-H460 lung, in the test on SF-268 CNS, in the test with UACC-62 melanoma, with MCF7 breast, with NCI-H23 lung and in the test on SK-MEL-5 melanoma was more than 100 µM each time. Besides, the TGI in the test with MOLT-4 leukemia was more than 36.3 µM; with SR leukemia, 23.2 µM; with LOX IMVI melanoma it was more than 100 µM.

Regarding `C/C=C1\CN(C(=O)OC(C)(C)C)C1C(=O)OC(C)(C)C` (stereo unspecified), the TGI in the test on NCI-H460 lung, in the test on SF-268 CNS, in the test with UACC-62 melanoma, in the test with MCF7 breast, with NCI-H23 lung and in the test on SK-MEL-5 melanoma was more than 100 µM in each case. Further, the TGI in the test on MOLT-4 leukemia, in the test with SR leukemia and with LOX IMVI melanoma was more than 100 µM each time.
